The source made the active and inactive calls.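 How the source made its calls: active means EC50 no more than a set limit of log units above the highest dose; inactive means the rest.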
Biological target: S. pyogenes SKKanGAS, kanamycin survival, BacTiterGlo, 6 h
Test: S. pyogenes SKKanGAS kanamycin growth inhibitors – SKKanGAS strain, luminescence, dose confirmation, streptokinase promoter inhibitor project, dose response (AID 1902);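 further: lower survival reflects blocked streptokinase promoter driving kanamycin resistance gene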

Structure (SMILES) | EC50
Cn1c(O)c(N=Nc2nc(-c3ccccc3)cs2)c2ccccc21 | 1200 nM
COC(=O)c1ccc2[nH]c3cccc(/C(=C/c4ccccc4)c4ccccc4)c3c2c1 | 1120 nM
OC(CNCc1ccco1)Cn1c2ccc(Br)cc2c2cc(Br)ccc21 (configuration not stated) | 5850 nM
CN1C(=O)/C(=C/c2ccccc2F)Sc2ccc(C(=O)N3CCCC3)cc21 | 1060 nM
CC(C)c1ccc2c(c1)C1(NN=C(c3ccccc3)S1)C(=O)N2 (configuration not stated) | < 60 nM
O=C(/C=C/c1cccc([N+](=O)[O-])c1)c1ccc([N+](=O)[O-])o1 | 2880 nM
OC(CNCC1CCCO1)Cn1c2ccc(Br)cc2c2cc(Br)ccc21 (configuration not stated) | 3470 nM
Oc1cccc2ccc(/C=C/c3ccccc3Cl)nc12 | 248 nM
O=C1/C(=C/c2cccnc2)SC(=NCc2ccccc2)N1Cc1ccccc1 | 8090 nM
CCN(CC)c1ccc(/C=N/Nc2nc3ccccc3[nH]2)c(O)c1 | 3170 nM
Cc1nnc(SCC2=C(C(=O)O)N3C(=O)C(NC(=O)c4cc(F)c(F)cc4Cl)C3SC2)s1 (configuration not stated) | 535 nM
c1ccc(-c2noc(-c3ccccc3-c3ccccc3)n2)cc1 | 3700 nM
O=Cc1cc(N=Nc2ccccc2Cl)ccc1O | 2960 nM
Cc1ccccc1/C=C1\Sc2ccc(C(=O)N3CCN(c4ccccn4)CC3)cc2N(C)C1=O | 6470 nM
O=[N+]([O-])c1ccc(S(=O)(=O)Nc2ccc(-c3csc(-c4ccccc4)n3)cc2)cc1 | 2790 nM
O=C(/C(N=Nc1cccc([N+](=O)[O-])c1)=C(/O)c1ccc(Br)cc1)C(F)(F)F | 4280 nM
Cc1ccc(NC2=C/C(=N\S(=O)(=O)c3cccs3)c3ccccc3C2=O)c(C)c1 | 1660 nM
C/C(CC(=O)Nc1ccc(Cl)c(C(F)(F)F)c1)=N\NC(=O)c1ccccc1O | 3980 nM
O=C1CC(N(CCc2ccccc2)C(=S)Nc2ccccc2)C(=O)N1c1ccc(Br)cc1 (configuration not stated) | 3070 nM
Cc1oc2c(c1C(=O)NCc1cccnc1)C(=O)c1ccccc1C2=O | 882 nM
CCOC(=O)N1CCN(C(=O)c2ccc3c(=O)n(CCC4=CCCCC4)c(=S)[nH]c3c2)CC1 | 7740 nM
O=C(N/N=C/c1c[nH]c2ccccc12)c1[nH]c2ccc(Br)cc2c1-c1ccccc1 | 2170 nM

Structure (SMILES) | EC50
Cc1ccccc1OCC(=O)Nc1ccccc1N1CCCCC1 | 8710 nM
N#Cc1ccc(C(=O)Nc2nc(SCc3ccc(Cl)cc3)n[nH]2)cc1 | 1520 nM
Cc1cc(SCC(=O)c2ccc(O)c(O)c2)n2nc(C)c(-c3ccccc3)c2n1 | 5050 nM
Nc1c(S(=O)(=O)c2ccccc2)c2nc3ccccc3nc2n1/N=C/c1cccc(O)c1 | 5220 nM
COCC1=C(C(=O)OC(C)OC(=O)OC(C)C)N2C(=O)[C@@H](NC(=O)/C(=N\OC)c3csc(N)n3)[C@H]2SC1 (some centres not stated) | 797 nM
Cc1ccc(C)c(CSC2=NCCN2S(=O)(=O)c2ccccc2)c1 | 15700 nM
O=C(N/N=C/c1c[nH]c2ccccc12)c1cc(-c2ccc(-c3ccccc3)cc2)n[nH]1 | 2890 nM
CCc1sc(N(C(=O)Cc2ccccc2)c2ccc(F)cc2)nc1-c1ccccc1 | 2540 nM
O=C(Nc1nc(-c2cc(Cl)sc2Cl)cs1)c1cccs1 | 8680 nM
COc1cc([N+](=O)[O-])cc(/C=N/NC(=O)c2cccnc2)c1O | 2640 nM
CC(C)NC(=S)NC(c1ccccc1)(c1ccccc1)c1ccccc1 | 4870 nM
CC(C)c1ccccc1OCC(O)CN(CC(O)COc1cccc2ccccc12)C(C)C (configuration not stated) | 4240 nM
O=C(/C=C/c1ccccc1)c1cc(Br)ccc(=O)c1O | 1330 nM
O=C(N/N=C/c1ccc(-c2ccc(Cl)c(C(=O)O)c2)o1)c1cc2c(ccc3ccccc32)o1 | 4050 nM
O=C(NNC(=O)c1cc(-c2ccc(Cl)cc2)nc2ccccc12)c1csc(N2CCOCC2)n1 | 3780 nM
O=[N+]([O-])c1ccc(/C=[N+](\[O-])CCO)o1 | 5780 nM
Cc1cc(/C=C2/C(=N)N3C(=NC2=O)SN=C3S(C)(=O)=O)c(C)n1-c1ccc(F)cc1 | 4980 nM
CCCCc1c(C)nn(-c2nnc3c4ccccc4n(CC)c3n2)c1C | 1840 nM
N=C1SC(c2ccccc2)C(=O)N1c1ncc(Cc2ccccc2Cl)s1 (configuration not stated) | 177 nM
Cn1ncc(Cl)c1C(=O)N1CCC2(CC1)OCCO2 | > 15000 nM (inactive)
CC(C)Oc1ccc(C(=O)Nc2nc3ccccc3[nH]2)cc1 | 1410 nM
O=C(Nc1cc(Cl)cc(Cl)c1)Nc1cnccn1 | 4850 nM

Structure (SMILES) | EC50
COc1cccc2sc(Nc3nnc(-c4ccc(F)cc4)o3)nc12 | 546 nM
CCc1nnc(NS(=O)(=O)c2ccc(NC(=S)NC(=O)/C=C/c3ccc(C(C)C)cc3)cc2)s1 | 3110 nM
Nc1nc(N)c2cc(Sc3ccc4ccccc4c3)ccc2n1 | 115 nM
Cc1nc(N)nc(N)c1CCCc1ccc(Cl)c(Cl)c1 | 870 nM
CCOC(=O)c1cnc(-n2nc(C)cc2C)nc1NC1CCCCC1 | < 60 nM
CC(=O)N1CCc2cc(S(=O)(=O)N3CCc4ccccc43)ccc21 | > 15000 nM (inactive)
Cc1noc(C)c1C(=O)Nc1nccs1 | > 15000 nM (inactive)
CCC(=O)N1N=C(c2c(O)n(CCc3ccccc3)c(=O)[nH]c2=O)CC1c1ccc(OC)c(OC)c1 (configuration not stated) | 991 nM
Cc1cc(COC(=O)C2N3C(=O)[C@@H](NC(=O)COc4ccccc4)[C@H]3SC2(C)C)on1 (some centres not stated) | 119 nM
CCOC(=O)C1=C(N)c2ccccc2CC1C1CCCC1 (configuration not stated) | 3260 nM
CCC(=O)Nc1nc2ccccc2n1Cc1ccccc1C | 1620 nM
CCCc1sc(N/N=C/c2ccccn2)nc1-c1ccc(F)cc1 | 9330 nM
CCOC(=O)C1=C(c2ccc(OC)cc2)C(=O)c2ccccc2C1=O | 1780 nM
CC(=O)OCC1=C(C(=O)O)N2C(=O)C(NC(=O)c3ccc(COc4cccc(Cl)c4Cl)o3)C2SC1 (configuration not stated) | 2790 nM
COc1ccc(-c2c/c(=N\c3nc(-c4ccccc4)c(C)s3)c3ccccc3o2)cc1O | 11000 nM
Oc1ccc(/C=C/c2ccc3cccc(O)c3n2)cc1Br | 1040 nM
CC(C)=CCc1c(O)cc2c(c1O)C(=O)CC(c1ccc(O)cc1)O2 (configuration not stated) | 6080 nM
CCN1/C(=C/C=C/c2sc3ccccc3[n+]2CC)Sc2ccccc21 | 2150 nM
COc1cc([N+](=O)[O-])cc(/C=N\NC(=O)C2COc3ccccc3O2)c1O (configuration not stated) | 3610 nM
O=C(NC(=S)Nc1ccc(N2CCOCC2)c(Cl)c1)c1cccs1 | 9890 nM
CC(C)COCc1ccc(O)c2ncccc12 | 1020 nM
CCCCCCCOC(=O)C[N+](C)(C)CCOC1CC2CCC1(C)C2(C)C (configuration not stated) | 4520 nM

Structure (SMILES) | EC50
Cc1ccc2[nH]c(C(=O)N/N=C/c3ccccc3O)c(C)c2c1 | 1670 nM
CCOc1ccc2[nH]c3c(N4CCc5ccccc5C4)ncnc3c2c1 | 7940 nM
O=C(Nc1nnc(C2COc3ccccc3O2)o1)c1ccc(F)cc1 (configuration not stated) | 1470 nM
CCn1cnc2sc(C(=O)Oc3cccc(C)c3)c(C)c2c1=O | 4080 nM
CCS(=O)(=O)Nc1ccc(-c2cc(-c3ccccc3)c3cc(C)ccc3n2)cc1 | 4030 nM
Cc1nc(C)c(C(=O)N/N=C/c2cc(Br)ccc2O)s1 | 2000 nM
CCOC(=O)c1[nH]c2ccc(F)cc2c1NC(=O)c1ccccc1C(=O)O | > 15000 nM (inactive)
O=C(O)c1ccc(CSc2nc(-c3ccc(Cl)cc3)cc(C(F)(F)F)n2)cc1 | 2690 nM
Cc1cccc(C)c1OCC(O)CN1CCC(CN2C(=O)c3cccc4cccc(c34)C2=O)CC1 (configuration not stated) | 7350 nM
Oc1ccc(Br)cc1/C=N/NC(=S)NCCc1ccccc1 | 1930 nM
O=C(Nc1ccc(F)cc1)c1nc2c(nnn2Cc2cccc3ccccc23)c(=O)[nH]1 | 2440 nM
Cc1ccc2nc(-c3ccc(NS(=O)(=O)c4ccc(F)c(F)c4)cc3)sc2c1 | 2690 nM
CCC(C(=O)NCC1CCCO1)n1nc(C)c2sc3ccccc3c2c1=O (configuration not stated) | > 15000 nM (inactive)
CC(C)Sc1cc(N2CCCC2)nc(-c2ccccc2)n1 | 11200 nM
CC(C)(C)c1cc(NCc2ccccn2)n2ncc(-c3ccc(Cl)cc3)c2n1 | 1340 nM
Cc1cccc(OCC(=O)NCC(=O)N/N=C/c2cc(Br)cc(Br)c2O)c1 | 723 nM
Cc1ccc(NC2=NCC(Cc3ccc(Br)cc3)S2)cc1 (configuration not stated) | 557 nM
CCCCCCCCCCCCOC(=O)C[N+](C)(C)C | 3020 nM
COc1ccc(/C=N/NC(=O)Cc2csc(Nc3cccc(C(F)(F)F)c3)n2)cc1C | 3940 nM
CCOc1ccc2c(c1)C(=NNC(=O)c1ccncc1)c1cc(OCC)ccc1-2 | 1570 nM
Cc1cc(N/N=C/c2ccccc2O)nc(-c2ccccc2O)n1 | 1600 nM
CC(=O)O[C@H]1C[C@@]2(C)[C@@H](C[C@@H](O)[C@H]3[C@@]4(C)CC[C@@H](O)[C@@H](C)[C@@H]4CC[C@@]32C)/C1=C(\CCC=C(C)C)C(=O)O | 177 nM

Structure (SMILES) | EC50
Brc1ccc2[nH]c3c(N4CCc5ccccc5C4)ncnc3c2c1 | 6220 nM
CCN1/C(=C\C=C\C2=[N+](CC)c3ccccc3C2(C)C)C(C)(C)c2ccccc21 | 7340 nM
CCCSc1cc(N2CCCC2)nc(-c2ccccc2)n1 | 6800 nM
CCCCCCSc1cc(-c2nc3cnccn3c2NCc2ccccc2)ccc1OC | 3610 nM
O=c1c(O)c(-c2cccs2)oc2ccc(Cl)cc12 | 2060 nM
COc1ccc(C(=O)N2CCc3c([nH]c4ccccc34)C2C(F)(F)F)cc1 (configuration not stated) | > 15000 nM (inactive)
COc1ccc(OC)c(/C=N/n2c(-c3n[nH]c4c3CCC4)n[nH]c2=S)c1 | > 15000 nM (inactive)
Cc1cccc(C(=O)CC(=O)c2cc(Cl)ccc2O)c1 | 1060 nM
O=C(/C=C/c1ccccc1)NC(NC(=S)Nc1cc(Cl)ccc1Cl)C(Cl)(Cl)Cl (configuration not stated) | 550 nM
CC(C)C[C@H](NC(=O)c1[nH]cnc1C(=O)N[C@@H](C)C(=O)OC(C)(C)C)C(=O)OCc1ccccc1 | 7060 nM
CC(OC(=O)CC1CCCC1)C(=O)Nc1ccc(S(N)(=O)=O)cc1 (configuration not stated) | > 15000 nM (inactive)
COc1ccc(CCCC(=O)N/N=C/c2cccc(OC)c2O)cc1C | 1660 nM
Nc1nc(Nc2cccc(Cl)c2)nc(NCc2ccco2)c1[N+](=O)[O-] | 7920 nM
Cc1cc(C)c(C2C3=C(Nc4c2c(C)nn4-c2ccccn2)c2ccccc2C3=O)c(C)c1 (configuration not stated) | 1450 nM
[O-][n+]1c2ccccc2[n+]([O-])c2cc(O)ccc21 | 5860 nM
COc1ccc(/C=N/Nc2cc(C)nc(-n3nc(C)cc3C)n2)c(OC)c1 | 7930 nM
Cc1ccccc1N1CCN(S(=O)(=O)c2nnc(NC(=O)c3ccco3)s2)CC1 | 4460 nM
CCn1cc(C(=O)O)c(=O)c2cc(F)c(N3CCN(S(=O)(=O)c4ccc(NC(C)=O)cc4)CC3)cc21 | 4650 nM
COc1cc(C(=O)NC(=S)Nc2ccc(Cc3ccncc3)cc2)cc(OC)c1OC | 2450 nM

— PubChem BioAssay AID1902 (Broad Institute, 2009)
